Source: patent US20220241203A1, “METHOD FOR PRODUCTION OF LIPOSOMES” (UNIVERSIDADE DO MINHO, priority 2019, published 2022)

Experiment: Encapsulation efficiency of the agent in liposomes (free agent removed by gel filtration)
Type: physicochemical
Protocol: In an embodiment, liposomes composed of DOPE/Cholesterol/DSPE-MPEG (54:36:10, molar ratio) were prepared using the ethanolic injection method. Briefly, lipids (DOPE, cholesterol and DSPE-MPEG) were dissolved in ethanol (5% in the classic ethanol injection method; 50% in the new proposed pre-concentration method, relative to the initial 20% aqueous phase) at 60° C.
The solution was injected under stirring to an aqueous solution (phosphate buffered saline, PBS). This process is done at 70° C., remaining during the necessary time to evaporate all the ethanol volume.
In the classic ethanolic injection method liposomes are extruded to reduce their size. In the pre-concentration method, after ethanol evaporation or tangential flow filtration, liposomal dispersion is diluted five times in PBS (remaining 80% of volume is added). The free therapeutic or imaging agent that was not incorporated into liposomes was removed from the samples after passage through a gel filtration chromatography column (GE Healthcare) with 5 kDa cut-off (PD-10 Desalting Columns containing 8.3 mL of Sephadex G-25 Medium). Hydrophilic therapeutic or imaging agents (e.g. methotrexate and doxorubicin) are present in this aqueous phase in the classic ethanol injection method and in the new proposed pre-concentration method. […]

CN(Cc1cnc2nc(N)nc(N)c2n1)c1ccc(C(=O)N[C@@H](CCC(=O)O)C(=O)O)cc1 [methotrexate]
amount of the agent used that was encapsulated (before optimization of the production method): 3-5%
encapsulation efficiencies (pre-concentration method, 1:1 ethanol:aqueous phase, 2 steps): ~40%
